# According to patent US20220000964A1, “Compositions and Methods for Regulating Homeostasis of Chondrocytes, Extracellular Matrix, Articular Cartilage, and Phenotype of Arthritis” (Unigen, Inc., priority 2020, published 2022):
# Marks after values point to notes of the source that are not given here.
# Columns and labels:
# Assay type in all cases: in vivo, rat
# CIA rats [1] = assay: CIA rats, paw thickness; parameters: Paw thickness (Mean): unit not given beside the values; details: for % Inhibition Paw thickness (AUC): vs CIA + vehicle
# CIA rats [2] = assay: CIA rats, compression-induced pain (Randall-Salitto)
# Experimental: Clinical findings such as arthritis severity index, paw thickness, ankle diameter (using Digital Absolute, Model #PK-0505CPX, Mitutoyo Corporation, Kawasaki, Japan), and pain sensitivity (using Randall Salitto, IITC Life Science Inc., Woodland Hills, Calif., USA) were monitored during the course of study. Urine was collected from overnight fasted rats using metabolic cages after three weeks of treatment post-model induction. At Necropsy, serum from the cardiac and synovial lavage (100 μL of saline was injected into the articular cavity and aspirated back to the syringe) for biomarkers and ankle joint for histopathology were collected from each animal.
# (§1) Response to pressure as a measure of pain sensitivity was assessed using the Randall-Salitto probe attached to an electronic monitor on priming day, boost day, and days 12, 14, 16, 19, and 21. Both the left and right hind legs were monitored on those days and their average was used for data analysis. Changes from the vehicle-treated CIA rats have been reported as pain tolerance on those days.
# as §1, with “measured” for “assessed”, “18” for “19,”, “20.” for “21.”, “averages were” for “average was”, “days. […] This reduction in pain sensitivity was statistically significant at all time points as of day-12 for both groups when compared to vehicle-treated CIA rats (Table 43).” for “days.”
# TNF-α = assay: CIA rats, serum TNF-α ELISA; details: for TNF-α: serum
# Experimental: The presence of catabolic cytokines IL-1β, TNF-α, or IL-6 was measured using Rat IL-1, TNF-α, and IL-6 Quantikine ELISA kit from R and D Systems (product #: RLB00 for IL-1β, RTA00 for TNF-α, and R6000B for IL-6) as follows: diluted serum was added to a microplate coated with polyclonal IL-1, TNF-α, or IL-6 antibody and allowed to bind for 2 h at room temperature. The microplate was washed thoroughly to remove unbound serum and then a polyclonal enzyme-conjugated IL-1β, TNF-α, or IL-6 antibody was added and allowed to bind for 2 h at room temperature. Washing was repeated, enzyme substrate was added, and the plate was developed for 30 min at room temperature. After the addition of stop solution, the absorbance was read at 450 nm, multiplied by dilution factor, and the concentration of IL-1β/TNF-α/IL-6 calculated based on the absorbance readings of an IL-1β/TNF-α/TL-6 standard curve.
# The presence of catabolic cytokines IL-6/TNF-α was measured using the Rat IL-6/TNF-α Quantikine ELISA kit from RandD Systems as follows: undiluted serum was added to a microplate coated with polyclonal IL-6/TNF-α antibody and allowed to bind for 2 hours at room temperature. The microplate was washed thoroughly to remove unbound serum, and then a polyclonal enzyme-conjugated IL-6/TNF-α antibody was added and allowed to bind for 2 hours at room temperature. Washing was repeated, enzyme substrate was added, and the plate was developed for 30 minutes at room temperature. After the addition of stop solution, the absorbance was read at 450 nm and the concentration of IL-6/TNF-α calculated based on the absorbance readings of an IL-6/TNF-α standard curve.
# MMP-13 = assay: CIA rats, serum MMP-13 ELISA; details: for MMP-13: serum
# Experimental: The presence of cartilage degradative enzyme MMP-13 was measured using the Rat Matrix Metallo-Proteinase 13 (MMP-13) ELISA kit from Mybiosource (product #: MBS702112 for MMP-13) as follows: serum was added to a microplate coated with MMP-13 antibody and allowed to bind for 2 h at 37° C. The samples were removed and then a biotin-conjugated MMP-13 antibody was added and allowed to bind for 1 h at 37° C. The microplate was thoroughly washed, and an avidin-conjugated Horse Radish Peroxidase was added and allowed to bind for 1 h at 37° C. Enzyme substrate was then added, and the plate was developed for 30 min at 37° C. After the addition of stop solution, the absorbance was read at 450 nm, multiplied by dilution factor, and the concentration of MMP-13 calculated based on the absorbance readings of an MMP-13 standard curve
# The presence of cartilage degradative enzyme MMP-13 was measured using the Rat Matrix Metalloproteinase 13 (MMP-13) ELISA kit from Mybiosource (product #: MBS702112) as follows: undiluted serum was added to a microplate coated with MMP-13 antibody and allowed to bind for 2 hours at 37° C. The samples were removed, and then a biotin-conjugated MMP-13 antibody was added and allowed to bind for 1 hour at 37° C. The microplate was thoroughly washed, and an avidin-conjugated Horse Radish Peroxidase was added and allowed to bind for 1 hour at 37° C. Enzyme substrate was then added, and the plate was developed for 30 minutes at 37° C. After the addition of stop solution, the absorbance was read at 450 nm and the concentration of MMP-13 calculated based on the absorbance readings of an MMP-13 standard curve.
# [3] = AP CIA study, Methotrexate 0.5 mg/kg, AP 200 mg/kg oral
# [4] = AMK CIA study, MTX 75 μg/kg, AMK 200 mg/kg oral
# [5] = AP study, MTX (0.5 mg/mL), AP (200 mg/kg) oral 3 weeks
smiles,measurement,setting,value
CN(Cc1cnc2nc(N)nc(N)c2n1)c1ccc(C(=O)N[C@@H](CCC(=O)O)C(=O)O)cc1 [Methotrexate],percent reduction in paw thickness / paw edema (AUC) vs vehicle-treated CIA,"CIA rats [1]; AMK CIA study, MTX 75 μg/kg, AMK 200 mg/kg oral, area under the swelling curve",71.7%
same,AUC(d9-d21) (Mean ± SD) Paw thickness,"CIA rats [1]; AMK study, MTX 75 μg/kg, AMK 200 mg/kg",20.64 ± 0.21
same,percent reduction in paw thickness / paw edema (AUC) vs vehicle-treated CIA,CIA rats [1]; [3],93.8%
same,AUC(d9-d21) (Mean ± SD) Paw thickness,"CIA rats [1]; AP study, MTX 0.5 mg/kg, AP 200 mg/kg",15.55 ± 0.21
same,Paw thickness,"CIA rats [1]; Boost, AP study, MTX 0.5 mg/kg, AP 200 mg/kg",2.95 ± 0.06
same,Paw thickness (Mean),"CIA rats [1]; Boost, MTX 75 μg/kg, AMK 200 mg/kg",3.07
same,Paw thickness (Mean),"CIA rats [1]; Day 9, MTX 75 μg/kg, AMK 200 mg/kg",3.12
same,Paw thickness (Mean),"CIA rats [1]; Day 10, MTX 75 μg/kg, AMK 200 mg/kg",3.17
same,Paw thickness (Mean),"CIA rats [1]; Day 11, MTX 75 μg/kg, AMK 200 mg/kg",3.32
same,Paw thickness,"CIA rats [1]; Day 12, AP study, MTX 0.5 mg/kg, AP 200 mg/kg",2.99 ± 0.06
same,Paw thickness (Mean),"CIA rats [1]; Day 12, MTX 75 μg/kg, AMK 200 mg/kg",3.47*
same,Paw thickness (Mean),"CIA rats [1]; Day 13, MTX 75 μg/kg, AMK 200 mg/kg",3.53*
same,Paw thickness,"CIA rats [1]; Day 14, AP study, MTX 0.5 mg/kg, AP 200 mg/kg",3.01 ± 0.03
same,Paw thickness (Mean),"CIA rats [1]; Day 14, MTX 75 μg/kg, AMK 200 mg/kg",3.60*
same,Paw thickness (Mean),"CIA rats [1]; Day 15, MTX 75 μg/kg, AMK 200 mg/kg",3.98^†
same,Paw thickness,"CIA rats [1]; Day 16, AP study, MTX 0.5 mg/kg, AP 200 mg/kg",3.21 ± 0.05
same,Paw thickness (Mean),"CIA rats [1]; Day 16, MTX 75 μg/kg, AMK 200 mg/kg",4.32^†
same,Paw thickness (Mean),"CIA rats [1]; Day 17, MTX 75 μg/kg, AMK 200 mg/kg",3.96^¥
same,Paw thickness,"CIA rats [1]; Day 18, AP study, MTX 0.5 mg/kg, AP 200 mg/kg",3.25 ± 0.05
same,Paw thickness (Mean),"CIA rats [1]; Day 19, MTX 75 μg/kg, AMK 200 mg/kg",3.06^¥
same,Paw thickness,"CIA rats [1]; Day 20, AP study, MTX 0.5 mg/kg, AP 200 mg/kg",3.23 ± 0.06
same,Paw thickness (Mean),"CIA rats [1]; Day 21, MTX 75 μg/kg, AMK 200 mg/kg",3.07^€
same,Paw thickness,"CIA rats [1]; Priming, AP study, MTX 0.5 mg/kg, AP 200 mg/kg",2.93 ± 0.07
same,Paw thickness (Mean),"CIA rats [1]; Priming, MTX 75 μg/kg, AMK 200 mg/kg",3.06
same,% Inhibition Paw thickness (AUC),"CIA rats [1]; MTX 75 μg/kg, AMK 200 mg/kg",71.71%
same,% Inhibition Paw thickness (AUC),"CIA rats [1]; MTX 0.5 mg/kg, AP 200 mg/kg",93.81%
same,pain tolerance improvement vs vehicle-treated CIA,"CIA rats [2]; AP CIA study, Methotrexate 0.5 mg/kg, day 20",69.4%
same,range of reduction in pain sensitivity vs vehicle treated CIA rats,"CIA rats [2]; AP CIA study, days 12-20",8.39-69.4%
same,Compression pain resistance vs CIA + vehicle (Mean ± SD),"CIA rats [2]; Boost, MTX 0.5 mg/kg, AP 200 mg/kg",−1.50%
same,Compression pain resistance vs CIA + vehicle (Mean ± SD),"CIA rats [2]; Day 12, MTX 0.5 mg/kg, AP 200 mg/kg",8.39%
same,Compression pain resistance vs CIA + vehicle (Mean ± SD),"CIA rats [2]; Day 14, MTX 0.5 mg/kg, AP 200 mg/kg",27.30%
same,Compression pain resistance vs CIA + vehicle (Mean ± SD),"CIA rats [2]; Day 16, MTX 0.5 mg/kg, AP 200 mg/kg",54.31%
same,Compression pain resistance vs CIA + vehicle (Mean ± SD),"CIA rats [2]; Day 18, MTX 0.5 mg/kg, AP 200 mg/kg",64.13%
same,Compression pain resistance vs CIA + vehicle (Mean ± SD),"CIA rats [2]; Day 20, MTX 0.5 mg/kg, AP 200 mg/kg",69.35%
same,Compression pain resistance vs CIA + vehicle (Mean ± SD),"CIA rats [2]; MTX 75 μg/kg, AMK 200 mg/kg oral, Boost",0.27 ± 2.16%
same,Compression pain resistance vs CIA + vehicle (Mean ± SD),"CIA rats [2]; MTX 75 μg/kg, AMK 200 mg/kg oral, Day 12",6.8%
same,Compression pain resistance vs CIA + vehicle (Mean ± SD),"CIA rats [2]; MTX 75 μg/kg, AMK 200 mg/kg oral, Day 12, listed as MTX",6.75 ± 4.56 %
same,Compression pain resistance vs CIA + vehicle (Mean ± SD),"CIA rats [2]; MTX 75 μg/kg, AMK 200 mg/kg oral, Day 14",13.5%
same,Compression pain resistance vs CIA + vehicle (Mean ± SD),"CIA rats [2]; MTX 75 μg/kg, AMK 200 mg/kg oral, Day 14, listed as MTX",13.48 ± 15.98%
same,Compression pain resistance vs CIA + vehicle (Mean ± SD),"CIA rats [2]; MTX 75 μg/kg, AMK 200 mg/kg oral, Day 16",28.2%
same,Compression pain resistance vs CIA + vehicle (Mean ± SD),"CIA rats [2]; MTX 75 μg/kg, AMK 200 mg/kg oral, Day 16, listed as MTX",28.18 ± 12.53 %
same,Compression pain resistance vs CIA + vehicle (Mean ± SD),"CIA rats [2]; MTX 75 μg/kg, AMK 200 mg/kg oral, Day 19",40.8%
same,Compression pain resistance vs CIA + vehicle (Mean ± SD),"CIA rats [2]; MTX 75 μg/kg, AMK 200 mg/kg oral, Day 19, listed as MTX",40.77%
same,Compression pain resistance vs CIA + vehicle (Mean ± SD),"CIA rats [2]; MTX 75 μg/kg, AMK 200 mg/kg oral, Day 21",43.9%
same,Compression pain resistance vs CIA + vehicle (Mean ± SD),"CIA rats [2]; MTX 75 μg/kg, AMK 200 mg/kg oral, Day 21, listed as MTX",43.88 ± 5.97^¥ %
same,Compression pain resistance vs CIA + vehicle (Mean ± SD),"CIA rats [2]; MTX 75 μg/kg, AMK 200 mg/kg oral, Prime",−0.12 ± 1.39%
same,Compression pain resistance vs CIA + vehicle (Mean ± SD),"CIA rats [2]; Prime, MTX 0.5 mg/kg, AP 200 mg/kg",−1.20%
same,serum TNF-α inhibition compared to diseased control,TNF-α; [4],86.2%
same,serum TNF-α level vs vehicle-treated CIA,TNF-α; [3],significantly reduced
same,TNF-α,"TNF-α; AMK study, AMK (200 mg/kg)",0.37 ± 1.12 pg/mL
same,TNF-α,TNF-α; [5],10.2 ± 0.37 pg/mL
same,serum MMP-13 inhibition compared to vehicle-treated CIA rats,MMP-13; [4],78.6%
same,MMP-13,"MMP-13; AMK study, MTX (75 μg/mL), AMK (200 mg/kg)",9.67 ± 1.80 pg/mL
same,MMP-13,MMP-13; [5],86.57 ± 45.31 pg/mL
